# Measured values from patent US10030016B2 (Sunesis Pharmaceuticals, Inc., priority 2009, dated 2018).
# Assays:
# PDK1 = PDK1 (Homo sapiens (Human), UniProt O15530); assay: PDK1 kinase assay (coupled PDK1/AKT/FAM-crosstide assay, IMAP fluorescence polarization); type: biochemical; settings: inhibition of PDK1 in vitro
# Procedure, shortened: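 Coupled cascade: 0.75 nM PDK1 (51-359) → 10 nM AKT2 (140-467-PIFtide) → 100 nM FAM-crosstide. ATP 40 μM, 25° C, 30 min. IMAP FP (ex 485/em 530), 2 h binding. ΔmP vs conc, 4-param fit.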
# [1] = test system: phospho-akt (Thr308) in PC-3 cells; assay: Inhibition of phospho-akt (Thr308) in PC-3 cells, MSD phospho-akt 308 ELISA kit; type: cell-based; settings: Homo sapiens; inhibition of P308 Akt in PC-3 cells using MSD, 2 hours, no serum; read-out: EC50
# Procedure, shortened: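 Phospho-Akt (Thr308) levels were measured by MSD ELISA after PC-3 cells received compound for 2 hours in serum-free medium. Controls: DMSO (high), 5 μM wortmannin (low).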
# PDK1, sequence (O15530 51-359): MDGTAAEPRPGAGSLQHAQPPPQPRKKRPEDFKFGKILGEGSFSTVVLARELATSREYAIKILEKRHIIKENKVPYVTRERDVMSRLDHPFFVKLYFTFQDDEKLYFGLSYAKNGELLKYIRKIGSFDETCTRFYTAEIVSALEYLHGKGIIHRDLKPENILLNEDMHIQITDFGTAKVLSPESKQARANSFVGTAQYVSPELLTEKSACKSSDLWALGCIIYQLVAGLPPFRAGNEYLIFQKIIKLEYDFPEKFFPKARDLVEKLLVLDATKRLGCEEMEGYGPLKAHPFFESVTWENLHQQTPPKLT
Structure (SMILES),IC50 (PDK1) [nM],EC50 [1] [nM]
"CC(C)(O)Cn1cc(-c2ccc(CNc3ncc(C(F)(F)F)cc3C(=O)Nc3ccc(F)cc3)cc2)c2c(N)ncnc21 [Example 405, 2-(4-(4-amino-7-(2-hydroxy-2-methylpropyl)-7H-pyrrolo[2,3-d]pyrimidin-5-yl)benzylamino)-N-(4-fluorophenyl)-5-(trifluoromethyl)nicotinamide]",< 100,1000 to 10000
"C[C@H](NC(=O)c1nc(C#N)cnc1NCc1ccc(-c2ccc(N)nn2)cc1)c1ccc(F)c(F)c1 [Example 409, (S)-3-(4-(6-aminopyridazin-3-yl)benzylamino)-6-cyano-N-(1-(3,4-difluorophenyl)ethyl)pyrazine-2-carboxamide]",< 100,1000 to 10000
"C[C@H](NC(=O)c1nc(C#N)cnc1N[C@H](C)c1ccc(-c2cnc3[nH]nc(N)c3n2)cc1)c1ccc(F)c(F)c1 [Example 411, 3-{(R)-1-[4-(3-Amino-1H-pyrazolo[3,4-b]pyrazin-5-yl)-phenyl]-ethylamino}-6-cyano-pyrazine-2-carboxylic acid [(S)-1-(3,4-difluoro-phenyl)-ethyl]-amide]",< 100,< 1000
"C[C@@H](Nc1ncc(C(F)(F)F)cc1C(=O)Nc1ccc(F)cc1)c1ccc(-c2cnc3[nH]nc(N)c3n2)cc1 [Example 412, 2-{(R)-1-[4-(3-Amino-1H-pyrazolo[3,4-b]pyrazin-5-yl)-phenyl]-ethylamino}-N-(4-fluoro-phenyl)-5-trifluoromethyl-nicotinamide]",< 100,1000 to 10000
"C[C@H](NC(=O)c1nc(C#N)cnc1NCc1ccc(-c2cnc3c(c2)c(N)nn3C)cc1)c1ccc(F)c(F)c1 [Example 414, (S)-3-(4-(3-amino-1-methyl-1H-pyrazolo[3,4-b]pyridin-5-yl)benzylamino)-6-cyano-N-(1-(3,4-difluorophenyl)ethyl) pyrazine-2-carboxamide]",1000 to 5000,1000 to 10000
"C[C@@H](NC(=O)c1nc(C#N)cnc1NCc1ccc(-c2cnc3[nH]nc(N)c3c2)cc1)c1ccc(F)c(F)c1 [Example 417, (R)-3-(4-(3-amino-1H-pyrazolo[3,4-b]pyridin-5-yl)benzylamino)-6-cyano-N-(1-(3,4-difluorophenyl)ethyl) pyrazine-2-carboxamide]",100 to 1000,1000 to 10000
"C[C@H](NC(=O)c1nc(C#N)cnc1NCc1ccc(-c2cnc3[nH]nc(NC(=O)C(C)(C)C)c3c2)cc1)c1ccc(F)c(F)c1 [Example 420, (S)-6-cyano-N-(1-(3,4-difluorophenyl)ethyl)-3-(4-(3-pivalamido-1H-pyrazolo[3,4-b]pyridin-5-yl)benzylamino)pyrazine-2-carboxamide]",< 100,1000 to 10000
"C[C@@H](Nc1ncc(C(F)(F)F)nc1C(=O)Nc1ccc(F)cc1)c1ccc(-c2cnc3[nH]nc(N)c3c2)cc1 [Example 421, (R)-3-(1-(4-(3-amino-1H-pyrazolo[3,4-b]pyridin-5-yl)phenyl)ethylamino)-N-(4-fluorophenyl)-6-(trifluoromethyl)pyrazine-2-carboxamide]",< 100,< 1000
"C[C@H](NC(=O)c1cc(C#N)cnc1N[C@H](C)c1ccc(-c2cnc3[nH]nc(N)c3c2)cc1)c1ccc(F)cc1 [Example 423, 2-{(R)-1-[4-(3-Amino-1H-pyrazolo[3,4-b]pyridin-5-yl)-phenyl]-ethylamino}-5-cyano-N-[(S)-1-(4-fluoro-phenyl)-ethyl]-nicotinamide]",< 100,< 1000
"C[C@H](NC(=O)c1cc(C#N)cnc1Nc1ccc(-c2cnc3[nH]nc(N)c3c2)cc1)c1ccc(F)cc1 [Example 424, (S)-2-(4-(3-amino-1H-pyrazolo[3,4-b]pyridin-5-yl)phenylamino)-5-cyano-N-(1-(4-fluorophenyl)ethyl)nicotinamide]",< 100,1000 to 10000
"N#Cc1cnc(NCc2ccc(-c3cnc4[nH]nc(N)c4c3)cc2)c(C(=O)Nc2ccc(Cl)cc2)n1 [Example 426, 3-(4-(3-amino-1H-pyrazolo[3,4-b]pyridin-5-yl)benzylamino)-N-(4-chlorophenyl)-6-cyanopyrazine-2-carboxamide]",< 100,< 1000
"C[C@@H](Nc1ncc(C(F)(F)F)cc1C(=O)Nc1ccc(F)cc1)c1ccc(-c2c[nH]c3ncnc(N)c23)cc1 [Example 433, 2-{(R)-1-[4-(4-Amino-7H-pyrrolo[2,3-d]pyrimidin-5-yl)-phenyl]-ethylamino}-N-(4-fluoro-phenyl)-5-trifluoromethyl-nicotinamide]",< 100,1000 to 10000
"C[C@H](NC(=O)c1cc(C#N)cnc1N[C@H](C)c1ccc(-c2cn(C)c3ncnc(N)c23)cc1)c1ccc(F)cc1 [Example 434, 2-{(R)-1-[4-(4-Amino-7-methyl-7H-pyrrolo[2,3-d]pyrimidin-5-yl)-phenyl]-ethylamino}-5-cyano-N-[(S)-1-(4-fluoro-phenyl)-ethyl]-nicotinamide]",< 100,< 1000

# Further lines, results first:
IC50 (PDK1) [nM],EC50 [1] [nM],Structure (SMILES)
< 100,1000 to 10000,"Nc1ncnc2c1c(-c1ccc(CNc3ncc(C(F)(F)F)cc3C(=O)Nc3ccc(F)cc3)cc1)cn2CCCCO [Example 404, 2-(4-(4-amino-7-(4-hydroxybutyl)-7H-pyrrolo [2,3-d]pyrimidin-5-yl)benzylamino)-N-(4-fluorophenyl)-5-(trifluoromethyl)nicotinamide]"
< 100,1000 to 10000,"Cc1cc(CNc2ncc(C#N)cc2C(=O)N[C@@H](C)c2ccc(F)cc2)ccc1-c1cnc2[nH]nc(N)c2c1 [Example 408, 2-[4-(3-Amino-1H-pyrazolo [3,4-b]pyridin-5-yl)-3-methyl-benzylamino]-5-cyano-N-[(S)-1-(4-fluoro-phenyl)-ethyl]-nicotinamide]"
< 100,< 1000,"Cc1n[nH]c2ncc(-c3ccc(CNc4ncc(C#N)nc4C(=O)N[C@@H](C)c4ccc(F)c(F)c4)cc3)cc12 [Example 410, (S)-6-cyano-N-(1-(3,4-difluorophenyl)ethyl)-3-(4-(3-methyl-1H-pyrazolo [3,4-b]pyridin-5-yl)benzylamino)pyrazine-2-carboxamide]"
< 100,< 1000,"CN(Cc1ccc(F)c(F)c1)C(=O)c1nc(C#N)cnc1NCc1ccc(-c2cnc3[nH]nc(N)c3c2)cc1 [Example 413, 3-(4-(3-amino-1H-pyrazolo[3,4-b]pyridin-5-yl)benzylamino)-6-cyano-N-(3,4-difluorobenzyl)-N-methylpyrazine-2-carboxamide]"
< 100,1000 to 10000,"Nc1n[nH]c2ncc(-c3ccc(CNc4ncc(C(F)(F)F)cc4C(=O)NCc4ccc(Cl)c(F)c4)cc3)cc12 [Example 419, 2-(4-(3-amino-1H-pyrazolo [3,4-b]pyridin-5-yl)benzylamino)-N-(4-chloro-3-fluorobenzyl)-5-(trifluoromethyl)nicotinamide]"
< 100,< 1000,"C[C@@H](Nc1ncc(C(F)(F)F)cc1C(=O)Nc1ccc(F)cc1)c1ccc(-c2cnc3[nH]nc(N)c3c2)cc1 [Example 422, 2-{(R)-1-[4-(3-Amino-1H-pyrazolo[3,4-b]pyridin-5-yl)-phenyl]-ethylamino}-N-(4-fluoro-phenyl)-5-trifluoromethyl-nicotinamide]"
< 100,< 1000,"N#Cc1ccc(NC(=O)c2nc(C#N)cnc2NCc2ccc(-c3cnc4[nH]nc(N)c4c3)cc2)cc1 [Example 425, 3-(4-(3-amino-1H-pyrazolo[3,4-b]pyridin-5-yl)benzylamino)-6-cyano-N-(4-cyanophenyl) pyrazine-2-carboxamide]"
< 100,1000 to 10000,"CCCn1cc(-c2ccc(CNc3ncc(C(F)(F)F)cc3C(=O)Nc3ccc(F)cc3)cc2)c2c(N)ncnc21 [Example 429, 2-(4-(4-amino-7-propyl-7H-pyrrolo[2,3-d]pyrimidin-5-yl)benzylamino)-N-(4-fluorophenyl)-5-(trifluoromethyl)nicotinamide]"
< 100,1000 to 10000,"CCn1cc(-c2ccc(CNc3ncc(C(F)(F)F)cc3C(=O)Nc3ccc(F)cc3)cc2)c2c(N)ncnc21 [Example 430, 2-(4-(4-amino-7-ethyl-7H-pyrrolo[2,3-d]pyrimidin-5-yl)benzylamino)-N-(4-fluorophenyl)-5-(trifluoromethyl)nicotinamide]"
< 100,1000 to 10000,COCCn1cc(-c2ccc(CNc3ncc(C(F)(F)F)cc3C(=O)Nc3ccc(F)cc3)cc2)c2c(N)ncnc21 [Example 431]
< 100,< 1000,"C[C@H](NC(=O)c1cc(C#N)cnc1N[C@H](C)c1ccc(-c2c[nH]c3ncnc(N)c23)cc1)c1ccc(F)cc1 [Example 432, 2-{(R)-1-[4-(4-Amino-7H-pyrrolo[2,3-d]pyrimidin-5-yl)-phenyl]-ethylamino}-5-cyano-N-[(S)-1-(4-fluoro-phenyl)-ethyl]-nicotinamide]"
< 100,< 1000,"C[C@H](NC(=O)c1cc(C#N)cnc1N[C@H](C)c1ccc(-c2cnc3[nH]nc(N)c3n2)cc1)c1ccc(F)cc1 [Example 435, 2-{(R)-1-[4-(3-Amino-1H-pyrazolo[3,4-b]pyrazin-5-yl)-phenyl]-ethylamino}-5-cyano-N-[(S)-1-(4-fluoro-phenyl)-ethyl]-nicotinamide]"
100 to 1000,1000 to 10000,"C[C@H](NC(=O)c1cc(C#N)cnc1Nc1ccc(-c2c[nH]c3ncnc(N)c23)cc1)c1ccc(F)cc1 [Example 436, (S)-2-(4-(4-amino-7H-pyrrolo[2,3-d]pyrimidin-5-yl)phenylamino)-5-cyano-N-(1-(4-fluorophenyl)ethyl)nicotinamide]"
